Measured values reported in US6455583B1, “Method for treating meibomian gland disease” (The University of Miami, priority 1998, dated 2002).
“And” between values parts separate entries of the source, which are not always exact repeats. Equal values may be shown once. Each block holds one molecule with its values, some of them ahead of it.

Tests used:
[1] = test system: patients with ocular rosacea; test: Topical oxytetracycline ointment in patients with meibomian gland disease associated with rosacea and delayed tear clearance (Example 5); assay type: in vivo, human; design: key to Clinical Response (per patient): Excellent response, complete or almost complete relief of symptoms.; Good response, symptoms moderately, but not completed relieved
Description: Eleven ( 11) patients with ocular irritation symptoms due to meibomian gland disease associated with rosacea and delayed tear clearance were treated with a commercially available oxytetracycline ointment (Terak, Akorn Pharmaceuticals) as a topical administration to the ocular surface or the eyelids. Seventy-three percent (73%) of these patients had complete resolution of irritation symptoms.

IL-1RA = IL-1RA release by human corneal epithelial cell cultures; assay type: cell-based; conditions: 24 h, FIG. 7
Description: Media=negative control; LPS=cultures treated with lipopolysaccharide for 24 h; Doxy=cultures treated with doxycycline (5 μg/ml) for 24 h; CMT 3=cultures treated with chemically modified tetracycline CMT 3 (1 μg/ml) for 24 hr; Doxy+LPS=cultures treated with LPS and doxycycline (5 μg/ml) for 24 h; CMT 3+LPS=cultures treated with LPS and chemically modified tetracycline CMT 3 (1 μg/ml) for 24 hr.
IL-1RA has an anti-inflammatory effect by competing with the pro-inflammatory forms of IL-1 (IL-1α and IL-1β) for the type 1 receptor. […] Furthermore, the concentration of IL-1RA in corneal epithelial cultures stimulated with LPS and treated with either doxycycline or CMT-3 was greater than cultures exposed to LPS alone (FIG. 7). These findings indicate tetracyclines are anti-inflammatory due to their ability to stimulate IL-1RA release by the human corneal epithelium.

[2] = test system: patients with meibomian gland disease and delayed tear clearance; test: Topical 0.025% doxycycline solution in patients with meibomian gland disease and delayed tear clearance (Example 6); assay type: in vivo, human
Description: Tetracyclines and chemically modified tetracyclines for topical administration can be added to buffered and electrolyte balanced aqueous solutions, buffered and electrolyte balanced aqueous solutions with a lubricating polymer, mineral oil or petrolatum-based ointment, other oils, liposomes, cylcodextrins, sustained release polymers or gels in a range from 0.001 to 3% (weight per volume or weight per weight). These preparations can be administered to the preocular tear film or onto the eyelid skin or lid margin 1 to 6 times per day for a period up to the lifetime of the patient. For example, an eye drop solution comprising doxycycline as an active ingredient was prepared by dissolving pharmaceutical grade doxycycline hydrochloride powder in an electrolyte-balanced salt solution (BSS™, Alcon, Ft. Worth, Tex.) to a final concentration of 0.025%.
The solution was prepared as described herein.

pro-MMP9 = pro-MMP9 activity in supernatant of human corneal epithelial cultures (gelatin zymogram); assay type: cell-based; conditions: doxycycline 5·g/ml for 24 hours, compared to untreated cultures; FIG. 8
Description: FIG. 8 is a gelatin zymogram of human corneal epithelial cell supernatant: doxycycline treatment and MMP-3 activation. Lane Legend: (1) 92 kDa purified pro-MMP-9 standard (0.1 ng); (2) Corneal epithelial supernatant+50 μg/mL doxycycline; (3)Supernatant+50 μg/mL doxycycline+1.5 ng/μL MMP-3; (4) Supernatant+100 μg/mL doxycycline+1.5 ng/μL MMP-3; (5) Supernatant from cell culture pre-treated with doxycycline; (6) Supernatant from cell culture pre-treated with doxycycline+1.5 ng/μL MMP-3. Exposure of human corneal epithelial cultures to doxycycline (5·g/ml) for 24 hours decreased the level of pro-MMP9 activity in the supernatant by 70% compared to untreated cultures (FIG. 8). MMP-9 is the metalloproteinase responsible for initiating sterile corneal ulceration and it is also capable of cleaving precursor IL-1β into its mature form.

patients who experienced burning from the medication ([1]; topical ointment, 11 patients, one of which ceased treatment): Three
Compound: CN(C)[C@@H]1C(O)=C(C(N)=O)C(=O)[C@@]2(O)C(O)=C3C(=O)c4c(O)cccc4[C@@](C)(O)[C@H]3[C@H](O)[C@@H]12 [oxytetracycline]
patients with complete resolution of (irritation) symptoms ([1]; topical ointment to ocular surface or eyelids, 11 patients): 73% | Clinical Response (per patient) ([1]; topical oxytetracycline ointment, one line per patient 1-11): G (3×) and E (8×) | Comments (tolerability, per patient) ([1]; topical oxytetracycline ointment, per patient): mild burning

Compound: NC(=O)C1=C(O)C[C@@H]2C[C@@H]3Cc4cccc(O)c4C(=O)C3=C(O)[C@]2(O)C1=O [CMT-3]
concentration of IL-1RA in LPS-stimulated cultures compared to LPS alone (IL-1RA; LPS + doxycycline 5 μg/ml or CMT 3 1 μg/ml): greater | release of IL-1RA into the media compared to untreated cultures (IL-1RA; doxycycline 5 μg/ml or CMT 3 1 μg/ml): significantly increased

Compound: C[C@H]1c2cccc(O)c2C(=O)C2=C(O)[C@]3(O)C(=O)C(C(N)=O)=C(O)[C@@H](N(C)C)[C@@H]3[C@@H](O)[C@@H]21 [doxycycline]
RESPONSE (per patient) ([2]; 0.025% topical doxycycline solution, one line per patient 1-11, diagnosis MGD, DTC): no effect | patients with complete resolution of symptoms ([2]; topical solution (doxycycline eye drops), 11 patients): more than 90% | decrease of the level of pro-MMP9 activity in the supernatant (pro-MMP9): 70%
